In publication PMC13087252, “A CXCR4 targeting peptide delivered by silica nanoparticles eliminates migrating cancer stem cells in pancreatic ductal adenocarcinoma” (Scientific Reports, 2026):

Tests used:
[1] = test system: CD133+ CSCs in Panc354 and MetPO1 cells; experiment: Flow cytometry for CD133 after combination treatment; assay type: cell-based, human; conditions: flow cytometry after 12 days of treatment, fold change
Description: For surface protein staining, 1 × 10^6 cells were resuspended in 100µl ice-cold FACS buffer supplemented with 6 µl Gamunex for 15 min at 4 °C. Cells were then incubated with CD133 (PE, Miltenyi Biotec, #130-113-108, RRID: AB_2725937) and CXCR4 (APC, eBioscience, #17-9999-42, RRID: AB_1724113) antibodies or an appropriate isotype control for 30 min at 4 °C. After a PBS wash, cells were resuspended in 500µl of ice-cold FACS buffer with DAPI in FACS tubes for analysis.
(§1) (A) Migration assays towards CXCL12 using Panc354 for EPI-X4 and its derivatives at depicted concentrations. […] (D) Quantifications of percent mesenchymal structures after 15 min and 6 h of CXCL12 treatment in MetPO1 cells. […] Intensity ratios (IR) calculated against control lane using ImageJ. […] Quantification of cell viability and representative pictures for clonogenic assays after treatment with JM#21 (10 μM), gemcitabine (Gem) for indicated concentrations as depicted in experimental design in MetPO1 cell line. […]
We then evaluated the therapeutic potential of JM#21. […] Since we have previously shown the role of CSCs in chemoresistance and the benefit of combination therapy for PDAC in vitro and in vivo[6],[38]–[40], we proceeded to evaluate the role of CSCs in the above-mentioned combination treatment and used flow cytometry to quantify CD133 + CSCs after 12 days of treatment (Fig. 5J, Supp. Figure 3I). […]

Panc354 = experiment: Transwell migration assay towards CXCL12 (serum-free, B27); assay type: cell-based, human; conditions: 8 μm pore inserts, CXCL12 10 nM as chemoattractant, 30 min peptide pre-treatment, 24 h, B27 as serum substitute, dose-dependent, largest suppression, n = 3
Description: Migration assays were performed using inserts with 8μm pore size PET membranes (Corning, 353,097). Serum (10% FBS) or CXCl12 (10nM) was used in the companion plates as chemoattractant. After 24 h, invaded cells were fixed with 4% PFA and stained with DAPI (Merck, 10,236,276,001). Ten random 10 × fields were chosen and photographed (Keyence), and the pictures were quantified using ImageJ (RRID:SCR_003070).
The CXCL12 – CXCR4 axis regulates a bidirectional tumor-stromal signaling loop that ultimately promotes CSCs and miCSCs and their metastatic and chemoresistant phenotypes. Therefore, targeting CXCR4 may provide a significant improvement in the anticancer therapeutic efficacy. The Endogenous Peptide Inhibitor of CXCR4 (EPI-X4) is a natural antagonist of CXCR4, previously discovered in a human peptide library screen. […]
as §1

Compound | CD133+ population in relapsed cells [1] | suppression of CXCL12-induced migration (Panc354)
Nc1ccn([C@@H]2O[C@H](CO)[C@@H](O)C2(F)F)c(=O)n1 [gemcitabine] | significant increase | –
EPI-X4: Endogenous Peptide Inhibitor of CXCR4, a natural antagonist of CXCR4 from a human peptide library screen (PQNLIKQNCELFEQLG; UniProt P02768 408-423, looked up, fragment) | – | approx. 50%
